Source: patent publication US20240116985A1, “STAPLED PEPTIDES AND METHODS THEREOF” (priority 2020, published 2024)
pEC50: −log10 of the molar value.

How the values were obtained:
[1] = biological target: T1, full-length B-Catenin (Uniprot ID P35222) (Homo sapiens, UniProt P35222); test: Alphascreen binding assay (beta-catenin / biotin-TCF4 10-53)
T1 construct: 65 nM full-length B-Catenin (Uniprot ID P35222)
T1 sequence (P35222 1-781): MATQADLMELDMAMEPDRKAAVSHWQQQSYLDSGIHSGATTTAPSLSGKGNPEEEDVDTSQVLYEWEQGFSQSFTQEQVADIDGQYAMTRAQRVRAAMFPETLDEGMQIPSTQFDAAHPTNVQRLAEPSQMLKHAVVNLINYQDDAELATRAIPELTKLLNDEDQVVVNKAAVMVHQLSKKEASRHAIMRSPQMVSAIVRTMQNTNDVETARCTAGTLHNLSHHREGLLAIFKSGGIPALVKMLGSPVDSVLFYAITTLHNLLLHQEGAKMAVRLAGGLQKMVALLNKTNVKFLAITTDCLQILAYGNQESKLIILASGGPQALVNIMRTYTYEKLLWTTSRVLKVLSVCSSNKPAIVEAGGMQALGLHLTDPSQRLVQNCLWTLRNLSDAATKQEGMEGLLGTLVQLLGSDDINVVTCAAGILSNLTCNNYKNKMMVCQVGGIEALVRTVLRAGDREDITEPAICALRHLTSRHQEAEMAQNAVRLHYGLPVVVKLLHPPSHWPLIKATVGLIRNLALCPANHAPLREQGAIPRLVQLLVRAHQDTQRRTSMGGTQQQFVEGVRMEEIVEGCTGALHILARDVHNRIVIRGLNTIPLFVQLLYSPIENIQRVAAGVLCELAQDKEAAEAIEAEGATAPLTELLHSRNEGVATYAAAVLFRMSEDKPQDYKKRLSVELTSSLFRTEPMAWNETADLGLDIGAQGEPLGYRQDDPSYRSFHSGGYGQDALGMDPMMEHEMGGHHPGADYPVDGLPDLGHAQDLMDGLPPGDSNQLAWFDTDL
Protocol: In some embodiments, an assay is an Alphascreen binding assay. A useful protocol is described below as an example.
Alphascreen binding assay: Using the AlphaScreen Histidine (Nickel Chelate) Detection Kit (PerkinElmer), peptide solutions were prepared in buffer (50 mM Tris pH 8.0, 250 mM NaCl, 2% glycerol, 0.03% Tween-20, 0.01% TritonX-100, 0.1% BSA w/v) using a 3-fold serial dilution from 10 uM to 5 nM. Probe solution (65 nM full-length B-Catenin (Uniprot ID P35222), mixed with 10 nM biotin labeled TCF4 residues 10-53 (Uniprot ID Q9NQB0) peptide in buffer) was prepared and 4 uL per well was plated in a white polystyrene 384-well plate (Corning). Equal volume of the titrated peptide was added to the plate and incubated for 15 minutes at 20° C. Then 4 uL of donor and 4 uL acceptor beads at 10 ug/mL were added to the plate, for a 16 uL reaction pool and protected from light for 60 minutes at 20° C. prior to read. Reads were performed on a CLARIOstar plate reader (BMG Labtech) in duplicate, and data were fitted to a 1:1 binding model with hill slope using an in-house script. All provided concentrations are final concentrations.

[2] = CHI Log D procedure; assay type: physicochemical; conditions: for CHI Log D: pH 7.4; for chromatographic logD: pH 7.4, CHI Log D

pEC50 [1]	CHI Log D [2]	chromatographic logD [2]	SMILES
5.31	1.268		COc1cccc(C[C@@H]2NC(=O)[C@H](C)NC(=O)[C@H](C)NC(=O)[C@H](CC(=O)O)NC(=O)[C@H](CC(=O)O)NC(=O)[C@](C)(NC(=O)[C@H](C)NC(=O)[C@H](CC(=O)O)NC(=O)[C@H](Cc3ccccc3)NC(C)=O)CCCCCCC=CCOC(=O)N3CC[C@@](C(=O)N[C@@H](Cc4ccccc4)C(=O)N[C@@H](Cc4c[nH]c5ccccc45)C(=O)N[C@@H](CCC(N)=O)C(N)=O)(C3)NC(=O)[C@H](C(C)C)NC2=O)c1 [I-103, Ac-Phe-Asp-Ala-R8-Asp-Asp-Ala-Ala-3OMeF-Val-PyrS-Phe-Trp-Gln-NH2]
5.00	2.359		CC(=O)N1CCC[C@]12CC=CCCCC1(CCCC=CCCCCCC[C@@](C)(C(=O)N[C@@H](Cc3ccccc3)C(=O)N[C@@H](Cc3c[nH]c4ccccc34)C(=O)N[C@@H](CCC(N)=O)C(N)=O)NC(=O)[C@H](C(C)C)NC(=O)[C@H](Cc3ccccc3)NC(=O)[C@H](C)NC(=O)[C@H](C)NC(=O)[C@H](CCC(=O)O)NC(=O)[C@H](CC(=O)O)NC1=O)NC(=O)[C@H](C)NC(=O)[C@H](Cc1c[nH]cn1)NC2=O (stereo partly drawn) [I-315, Ac-PL3-His-Ala-B5-Asp-Glu-Ala-Ala-Phe-Val-S8-Phe-Trp-Gln-NH2]
5.18	1.34		CC(=O)N[C@@H](Cc1ccccc1)C(=O)N[C@@H](CC(=O)O)C(=O)N[C@@H](C)C(=O)N[C@]1(C)CCCCCCC=CCOC(=O)N2CC[C@@](C(=O)N[C@@H](Cc3ccccc3)C(=O)N[C@@H](Cc3c[nH]c4ccccc34)C(=O)N[C@@H](CCC(N)=O)C(N)=O)(C2)NC(=O)[C@H]([C@@H](C)O)NC(=O)[C@H](Cc2ccccc2)NC(=O)[C@H](C)NC(=O)[C@H](C)NC(=O)[C@H](CC(=O)O)NC(=O)[C@H](CC(=O)O)NC1=O [I-221, Ac-Phe-Asp-Ala-R8-Asp-Asp-Ala-Ala-Phe-Thr-PyrS-Phe-Trp-Gln-NH2]
5.01	1.063		CC(=O)N[C@@H](Cc1ccccc1)C(=O)N[C@@H](CC(=O)O)C(=O)N[C@@H](C)C(=O)N[C@]1(C)CCCCCCC=CCOC(=O)N2CC[C@@](C(=O)N[C@@H](Cc3ccccn3)C(=O)N[C@@H](Cc3c[nH]c4ccccc34)C(=O)N[C@@H](CCC(N)=O)C(N)=O)(C2)NC(=O)[C@H](C(C)C)NC(=O)[C@H](Cc2ccccc2)NC(=O)[C@H](C)NC(=O)[C@H](C)NC(=O)[C@H](CC(=O)O)NC(=O)[C@H](CC(=O)O)NC1=O [I-81, Ac-Phe-Asp-Ala-R8-Asp-Asp-Ala-Ala-Phe-Val-PyrS-2PyrA-Trp-Gln-NH2]
5.18	1.34		CC(=O)N[C@@H](Cc1ccccc1)C(=O)N[C@@H](CC(=O)O)C(=O)N[C@@H](C)C(=O)N[C@]1(C)CCCCCCC=CCOC(=O)N2CC[C@@](C(=O)N[C@@H](Cc3ccccc3)C(=O)N[C@@H](Cc3c[nH]c4ccccc34)C(=O)N[C@@H](CCC(N)=O)C(N)=O)(C2)NC(=O)[C@H]([C@@H](C)O)NC(=O)[C@H](Cc2ccccc2)NC(=O)[C@H](C)NC(=O)[C@H](C)NC(=O)[C@H](CC(=O)O)NC(=O)[C@H](CC(=O)O)NC1=O [I-222, Ac-Phe-Asp-Ala-R8-Asp-Asp-Ala-Ala-Phe-Thr-PyrS-Phe-Trp-Gln-NH2]
5.91		2	COc1ccc2[nH]cc(C[C@H](NC(=O)[C@H](Cc3ccccc3)NC(=O)[C@]3(C)CCCCCCC=CCCCC4(CCCC=CC[C@]5(CCCN5C(C)=O)C(=O)N[C@@H](CC(=O)O)C(=O)N[C@@H](C)C(=O)N4)C(=O)N[C@@H](CC(=O)O)C(=O)N[C@@H](CCC(=O)O)C(=O)N[C@@H](C)C(=O)N[C@@H](C)C(=O)N[C@@H](Cc4ccccc4)C(=O)N[C@@H](C(C)C)C(=O)N3)C(=O)N[C@@H](CCC(N)=O)C(N)=O)c2c1 (stereo partly drawn) [I-165, Ac-PL3-Asp-Ala-B5-Asp-Glu-Ala-Ala-Phe-Val-S8-Phe-5MeOW-Gln-NH2]
5.12	1.497		CC(=O)N[C@@H](Cc1ccccc1)C(=O)N[C@@H](CC(=O)O)C(=O)N[C@@H](C)C(=O)N[C@]1(C)CCCCCCC=CCOC(=O)N2CC[C@@](C(=O)N[C@@H](Cc3c(F)c(F)c(F)c(F)c3F)C(=O)N[C@@H](Cc3c[nH]c4ccccc34)C(=O)N[C@@H](CCC(N)=O)C(N)=O)(C2)NC(=O)[C@H](C(C)C)NC(=O)[C@H](Cc2ccccc2)NC(=O)[C@H](C)NC(=O)[C@H](C)NC(=O)[C@H](CC(=O)O)NC(=O)[C@H](CC(=O)O)NC1=O [I-225, Ac-Phe-Asp-Ala-R8-Asp-Asp-Ala-Ala-Phe-Val-PyrS-Pff-Trp-Gln-NH2]
5.65	2.073		CC(=O)N1CCC[C@]12CC=CCCCC1(CCCC=CCCCCCC[C@@](C)(C(=O)N[C@@H](Cc3ccccc3)C(=O)N[C@@H](Cc3c[nH]c4ccccc34)C(=O)N[C@@H](CCC(N)=O)C(N)=O)NC(=O)[C@H](C(C)C)NC(=O)[C@H](Cc3c[nH]cn3)NC(=O)[C@H](C)NC(=O)[C@H](C)NC(=O)[C@H](CC(=O)O)NC(=O)[C@H](CC(=O)O)NC1=O)NC(=O)[C@H](C)NC(=O)[C@H](CC(=O)O)NC2=O (stereo partly drawn) [I-321, Ac-PL3-Asp-Ala-B5-Asp-Asp-Ala-Ala-His-Val-S8-Phe-Trp-Gln-NH2]
5.49	1.49		CC(=O)NC(C)(C)C(=O)N[C@@H](CC(=O)O)C(=O)N[C@@H](C)C(=O)N[C@]1(C)CCCCCCC=CCOC(=O)N2CC[C@@](C(=O)N[C@@H](Cc3ccccc3)C(=O)N[C@@H](Cc3c[nH]c4ccccc34)C(=O)NC(C)(C)C(N)=O)(C2)NC(=O)[C@H](C(C)C)NC(=O)[C@H](Cc2ccccc2)NC(=O)[C@H](C)NC(=O)[C@H](C)NC(=O)[C@H](CCC(=O)O)NC(=O)[C@H](CC(=O)O)NC1=O [I-160, Ac-Aib-Asp-Ala-R8-Asp-Glu-Ala-Ala-Phe-Val-PyrS-Phe-Trp-Aib-NH2]
5.43	2.214		CC(=O)N1CCC[C@]12CC=CCCCC1(CCCC=CCCCCCC[C@@](C)(C(=O)N[C@@H](Cc3ccc(C(F)(F)F)cc3)C(=O)N[C@@H](Cc3c[nH]c4ccccc34)C(=O)N[C@@H](CCC(N)=O)C(N)=O)NC(=O)[C@H](C(C)C)NC(=O)[C@H](Cc3ccccc3)NC(=O)[C@H](C)NC(=O)[C@H](C)NC(=O)[C@H](CC(=O)O)NC(=O)[C@H](CC(=O)O)NC1=O)NC(=O)[C@H](C)NC(=O)[C@H](CC(=O)O)NC2=O (stereo partly drawn) [I-252, Ac-PL3-Asp-Ala-B5-Asp-Asp-Ala-Ala-Phe-Val-S8-4F3MeF-Trp-Gln-NH2]
5.92	2.299		CC(=O)N1CCC[C@]12CC=CCCCC1(CCCC=CCCCCCC[C@@](C)(C(=O)N[C@@H](Cc3cccc(C(F)(F)F)c3)C(=O)N[C@@H](Cc3c[nH]c4ccccc34)C(=O)N[C@@H](CCC(N)=O)C(N)=O)NC(=O)[C@H](C(C)C)NC(=O)[C@H](Cc3ccccc3)NC(=O)[C@H](C)NC(=O)[C@H](C)NC(=O)[C@H](CC(=O)O)NC(=O)[C@H](CC(=O)O)NC1=O)NC(=O)[C@H](C)NC(=O)[C@H](CC(=O)O)NC2=O (stereo partly drawn) [I-250, Ac-PL3-Asp-Ala-B5-Asp-Asp-Ala-Ala-Phe-Val-S8-3F3MeF-Trp-Gln-NH2]
5.76		2.6	CC(=O)N1CCC[C@]12CC=CCCCC1(CCCC=CCCCCCC[C@@](C)(C(=O)N[C@@H](Cc3ccccc3)C(=O)N[C@@H](Cc3c[nH]c4ccccc34)C(=O)N[C@@H](CCC(N)=O)C(N)=O)NC(=O)[C@H](C(C)C)NC(=O)[C@H](Cc3ccccc3)NC(=O)[C@H](C)NC(=O)[C@H](C)NC(=O)[C@H](Cc3ccc(N)cc3)NC(=O)[C@H](CC(=O)O)NC1=O)NC(=O)[C@H](C)NC(=O)[C@H](CC(=O)O)NC2=O (stereo partly drawn) [I-324, Ac-PL3-Asp-Ala-B5-Asp-4AmPhe-Ala-Ala-Phe-Val-S8-Phe-Trp-Gln-NH2]

SMILES	pEC50 [1]	CHI Log D [2]	chromatographic logD [2]
CC(=O)N[C@@H](Cc1ccccc1)C(=O)N[C@@H](CC(=O)O)C(=O)N[C@@H](C)C(=O)N[C@]1(C)CCCCCCC=CCOC(=O)N2CC[C@@](C(=O)N[C@@H](Cc3ccccc3)C(=O)N[C@@H](Cc3c[nH]c4ccccc34)C(=O)N[C@@H](CCC(N)=O)C(N)=O)(C2)NC(=O)[C@H](C(C)C)NC(=O)[C@H](Cc2ccccc2)NC(=O)[C@H](C)NC(=O)[C@H](C)NC(=O)[C@H](CCc2ccccc2)NC(=O)[C@H](CC(=O)O)NC1=O [I-97, Ac-Phe-Asp-Ala-R8-Asp-hPhe-Ala-Ala-Phe-Val-PyrS-Phe-Trp-Gln-NH2]	5.15	2.062	
